Reference: the supplement of paper PMC10627819

Experiments:
S. pneumoniae D39V [1] = experiment: fitness (endpoint OD595 vs no drug) (fraction); higher = more growth
Method in brief: (§1)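 Fitness was defined as the optical density at the transition into stationary phase relative to the robust mean of no-drug control wells. Values were capped at 1. Cultures were started at OD595 0.01 in 384-well plates (30 µl, or 55 µl for S. pneumoniae) in TSB, LB Lennox or CY at 37 °C. OD595 was recorded every 30 min over 14 h, with the first reading subtracted as background.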

B. subtilis 168 [2] = experiment: as above
Method in brief: as §1

S. pneumoniae D39V [3] = experiment: Bliss interaction score (quartile over a dose matrix) (fitness difference); higher = more antagonism (negative = synergy)
Method in brief: (§2)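 Quartiles of the Bliss score were taken over technical, biological and donor/recipient replicates. That score is observed fitness minus the product of the single-drug fitness values, which were inferred from combination data. Fitness itself is OD595 at entry into stationary phase divided by the plate's robust no-drug mean, with a cap at 1.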

S. aureus DSM 20231 = experiment: as above
Method in brief: as §2

S. aureus Newman = experiment: as above
Method in brief: as §2

B. subtilis 168 [4] = experiment: as above
Method in brief: as §2
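Throughout, for Bliss interaction score (quartile over a dose matrix): first quartile when negative (synergy) and third quartile when positive (antagonism).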

C[C@H]1c2cccc(O)c2C(=O)C2=C(O)[C@]3(O)C(=O)C(C(N)=O)=C(O)[C@@H](N(C)C)[C@@H]3[C@@H](O)[C@@H]21 [Doxycycline] + Cc1cc(NS(=O)(=O)c2ccc(N)cc2)no1 [Sulfamethoxazol]
one replicate
Settings | fitness
B. subtilis 168 [2], first compound 0.02 µg/mL, partner 0.5 µg/mL | 0.829
B. subtilis 168 [2], first compound 0.04 µg/mL, partner 0.5 µg/mL | 0.72
B. subtilis 168 [2], first compound 0.08 µg/mL, partner 0.5 µg/mL | 0.456
S. pneumoniae D39V [1], first compound 0.003875 µg/mL, partner 1 µg/mL | ≥ 1
S. pneumoniae D39V [1], first compound 0.003875 µg/mL, partner 2 µg/mL | ≥ 1
S. pneumoniae D39V [1], first compound 0.003875 µg/mL, partner 4 µg/mL | ≥ 1
S. pneumoniae D39V [1], first compound 0.00775 µg/mL, partner 1 µg/mL | 0.961
S. pneumoniae D39V [1], first compound 0.00775 µg/mL, partner 2 µg/mL | 0.967
S. pneumoniae D39V [1], first compound 0.00775 µg/mL, partner 4 µg/mL | 0.963

fitness
Settings | first compound 0.0155 µg/mL | first compound 0.02 µg/mL | first compound 0.031 µg/mL | first compound 0.04 µg/mL | first compound 0.062 µg/mL | first compound 0.08 µg/mL
B. subtilis 168 [2], partner 1 µg/mL | – | 0.856 | – | 0.718 | – | 0.485
B. subtilis 168 [2], partner 2 µg/mL | – | 0.818 | – | 0.702 | – | 0.424
B. subtilis 168 [2], partner 4 µg/mL | – | 0.876 | – | 0.76 | – | 0.528
S. pneumoniae D39V [1], partner 1 µg/mL | 0.929 | – | 0.848 | – | 0.755 | –
S. pneumoniae D39V [1], partner 2 µg/mL | 0.939 | – | 0.859 | – | 0.779 | –
S. pneumoniae D39V [1], partner 4 µg/mL | 0.897 | – | 0.81 | – | 0.77 | –

Settings | Bliss interaction score
B. subtilis 168 [4] | -0.0451
S. aureus DSM 20231 | -0.0457
S. aureus Newman | -0.0242
S. pneumoniae D39V [3] | -0.0349

C[C@H]1c2cccc(O)c2C(=O)C2=C(O)[C@]3(O)C(=O)C(C(N)=O)=C(O)[C@@H](N(C)C)[C@@H]3[C@@H](O)[C@@H]21 [Doxycycline] + C[C@@H]1O[C@@H]1P(=O)(O)O [Fosfomycin]
fitness, S. pneumoniae D39V [1], one replicate
Settings | partner 1.25 µg/mL | partner 2.5 µg/mL | partner 5 µg/mL
first compound 0.003875 µg/mL | 0.969 | 0.883 | 0.753
first compound 0.00775 µg/mL | 0.97 | 0.915 | 0.814

fitness
Settings | partner 1.25 µg/mL | partner 1.562 µg/mL | partner 2.5 µg/mL | partner 3.124 µg/mL | partner 5 µg/mL | partner 6.248 µg/mL
B. subtilis 168 [2], first compound 0.02 µg/mL | – | 0.752 | – | 0.645 | – | 0.556
B. subtilis 168 [2], first compound 0.04 µg/mL | – | 0.699 | – | 0.56 | – | 0.419
B. subtilis 168 [2], first compound 0.08 µg/mL | – | 0.5 | – | 0.364 | – | 0.253
S. pneumoniae D39V [1], first compound 0.0155 µg/mL | 0.894 | – | 0.862 | – | 0.791 | –
S. pneumoniae D39V [1], first compound 0.031 µg/mL | 0.799 | – | 0.804 | – | 0.742 | –

Settings | Bliss interaction score
B. subtilis 168 [4] | 0.131
S. aureus DSM 20231 | -0.153
S. aureus Newman | -0.113
S. pneumoniae D39V [3] | -0.096

C[C@@H]1O[C@@H]1P(=O)(O)O [Fosfomycin] + C[C@H]1COc2c(N3CCN(C)CC3)c(F)cc3c(=O)c(C(=O)O)cn1c23 [Levofloxacin]
Settings | fitness
B. subtilis 168 [2], first compound 1.562 µg/mL, partner 0.002 µg/mL | 0.717
B. subtilis 168 [2], first compound 1.562 µg/mL, partner 0.0039 µg/mL | 0.724
B. subtilis 168 [2], first compound 1.562 µg/mL, partner 0.0312 µg/mL | 0.0432
B. subtilis 168 [2], first compound 1.562 µg/mL, partner 0.0625 µg/mL | 0.0523
B. subtilis 168 [2], first compound 1.562 µg/mL, partner 0.125 µg/mL | 0.0479
B. subtilis 168 [2], first compound 3.124 µg/mL, partner 0.002 µg/mL | 0.629
B. subtilis 168 [2], first compound 3.124 µg/mL, partner 0.0039 µg/mL | 0.617
B. subtilis 168 [2], first compound 3.124 µg/mL, partner 0.0312 µg/mL | 0.0352
B. subtilis 168 [2], first compound 3.124 µg/mL, partner 0.0625 µg/mL | 0.0394
B. subtilis 168 [2], first compound 3.124 µg/mL, partner 0.125 µg/mL | 0.0439
B. subtilis 168 [2], first compound 6.248 µg/mL, partner 0.002 µg/mL | 0.525
B. subtilis 168 [2], first compound 6.248 µg/mL, partner 0.0039 µg/mL | 0.516
B. subtilis 168 [2], first compound 6.248 µg/mL, partner 0.0312 µg/mL | 0.0328
B. subtilis 168 [2], first compound 6.248 µg/mL, partner 0.0625 µg/mL | 0.0306
B. subtilis 168 [2], first compound 6.248 µg/mL, partner 0.125 µg/mL | 0.023
S. pneumoniae D39V [1], first compound 1.25 µg/mL, partner 0.1725 µg/mL | 0.953
S. pneumoniae D39V [1], first compound 1.25 µg/mL, partner 0.2 µg/mL | 0.936
S. pneumoniae D39V [1], first compound 1.25 µg/mL, partner 0.345 µg/mL | 0.86
S. pneumoniae D39V [1], first compound 1.25 µg/mL, partner 0.4 µg/mL | 0.857
S. pneumoniae D39V [1], first compound 1.25 µg/mL, partner 0.69 µg/mL | 0.633
S. pneumoniae D39V [1], first compound 2.5 µg/mL, partner 0.1725 µg/mL | 0.88
S. pneumoniae D39V [1], first compound 2.5 µg/mL, partner 0.2 µg/mL | 0.892
S. pneumoniae D39V [1], first compound 2.5 µg/mL, partner 0.345 µg/mL | 0.735
S. pneumoniae D39V [1], first compound 2.5 µg/mL, partner 0.4 µg/mL | 0.823
S. pneumoniae D39V [1], first compound 2.5 µg/mL, partner 0.69 µg/mL | 0.574
S. pneumoniae D39V [1], first compound 5 µg/mL, partner 0.1725 µg/mL | 0.821
S. pneumoniae D39V [1], first compound 5 µg/mL, partner 0.2 µg/mL | 0.794
S. pneumoniae D39V [1], first compound 5 µg/mL, partner 0.345 µg/mL | 0.728
S. pneumoniae D39V [1], first compound 5 µg/mL, partner 0.4 µg/mL | 0.697
S. pneumoniae D39V [1], first compound 5 µg/mL, partner 0.69 µg/mL | 0.536
S. pneumoniae D39V [1], first compound 5 µg/mL, partner 0.8 µg/mL | 0.341

fitness, B. subtilis 168 [2], one replicate
Settings | first compound 1.562 µg/mL | first compound 3.124 µg/mL | first compound 6.248 µg/mL
partner 0.001 µg/mL | 0.864 | 0.738 | 0.599
partner 0.0078 µg/mL | 0.75 | 0.643 | 0.492

Settings | Bliss interaction score
B. subtilis 168 [4] | -0.0453
S. aureus DSM 20231 | 0.0688
S. aureus Newman | 0.0484
S. pneumoniae D39V [3] | 0.0613

C[C@H]1c2cccc(O)c2C(=O)C2=C(O)[C@]3(O)C(=O)C(C(N)=O)=C(O)[C@@H](N(C)C)[C@@H]3[C@@H](O)[C@@H]21 [Doxycycline] + CN[C@@H]1[C@H](O[C@H]2[C@H](O[C@H]3[C@H](O)[C@@H](O)[C@H](N=C(N)N)[C@@H](O)[C@@H]3N=C(N)N)O[C@@H](C)[C@]2(O)C=O)O[C@@H](CO)[C@H](O)[C@H]1O [Streptomycin]
S. pneumoniae D39V [1], one replicate
Settings | fitness
first compound 0.003875 µg/mL, partner 2 µg/mL | 0.955
first compound 0.003875 µg/mL, partner 4 µg/mL | ≥ 1
first compound 0.003875 µg/mL, partner 8 µg/mL | 0.977
first compound 0.00775 µg/mL, partner 2 µg/mL | 0.928
first compound 0.00775 µg/mL, partner 4 µg/mL | 0.952
first compound 0.00775 µg/mL, partner 8 µg/mL | 0.937
first compound 0.0155 µg/mL, partner 16 µg/mL | 0.741
first compound 0.031 µg/mL, partner 16 µg/mL | 0.671
first compound 0.062 µg/mL, partner 16 µg/mL | 0.57

fitness
Settings | partner 2 µg/mL | partner 4 µg/mL | partner 8 µg/mL
B. subtilis 168 [2], first compound 0.02 µg/mL | 0.902 | 0.772 | –
B. subtilis 168 [2], first compound 0.04 µg/mL | 0.766 | 0.678 | –
B. subtilis 168 [2], first compound 0.08 µg/mL | 0.497 | – | –
S. pneumoniae D39V [1], first compound 0.0155 µg/mL | 0.9 | 0.895 | 0.891
S. pneumoniae D39V [1], first compound 0.031 µg/mL | 0.866 | 0.859 | 0.837
S. pneumoniae D39V [1], first compound 0.062 µg/mL | 0.72 | 0.714 | 0.735

Settings | Bliss interaction score
B. subtilis 168 [4] | 0.251
S. aureus DSM 20231 | 0.0508
S. aureus Newman | -0.016
S. pneumoniae D39V [3] | -0.0673
